Source: PubChem BioAssay (NCI)
“And” between values parts separate entries of the source, which are not always exact repeats. Equal values may be shown once.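 Grown in 96-well plates, cells were treated for 48 hours with each compound at five concentrations. Insufficient inhibition: endpoint recorded as highest concentration tested. GI50 marks 50% less growth. Definition used: TGI = concentration required for complete inhibition of growth.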 *1 amine or outer side, *2 acyl side, *3 side chain or, on linkers, in order; H or OH if unused. Where a SMILES comes first, the peptide text is derived from it. Bridges are numbered along the chain shown (N, C = ends). [ ]: non-standard residue; d: D form. The star is where a group is joined. Phe(3-Me) = Cc1cccc(C[C@H](N)C(=O)O)c1; NH(4-Cl-2-F-phenyl) = Fc1cc(Cl)ccc1N*; Pro(4R-Me) = C[C@H]1CN[C@H](C(=O)O)C1; Propanoyl(3-NMe2) = CN(C)CCC(=O)*; Hyp = O=C(O)[C@@H]1C[C@@H](O)CN1; aThr = C[C@H](O)[C@H](N)C(=O)O; Pip = O=C(O)[C@@H]1CCCCN1; CO = O=C([*:1])[*:2]

How the values were obtained:
Test in all cases: growth of human tumour cells (NCI), 48 h
[1] = test system: BT-549 breast
[2] = test system: UACC-257 melanoma
[3] = test system: KM12 colon
[4] = test system: RXF 393 renal
[5] = test system: DU-145 prostate
[6] = test system: SN12C renal
[7] = test system: LOX IMVI melanoma
[8] = test system: SF-268 CNS
[9] = test system: NCI/ADR-RES ovarian
[10] = test system: PC-3 prostate

SMILES	GI50 [1]	TGI [1]	GI50 [2]	TGI [2]	GI50 [3]	TGI [3]	GI50 [4]	TGI [4]	GI50 [5]	TGI [5]	GI50 [6]	TGI [6]	GI50 [7]	TGI [7]	GI50 [8]	TGI [8]	GI50 [9]	TGI [9]	GI50 [10]	TGI [10]
CCN1CCN(C(=O)[C@]23CCC(C)(C)C[C@@H]2C2=CC[C@@H]4[C@@]5(C)C/C(=C/c6cccnc6)C(=O)C(C)(C)[C@@H]5CC[C@@]4(C)[C@]2(C)CC3)CC1	1.47 µM	2.88 µM	1.62 µM	4.29 µM	1.58 µM	3.26 µM	1.42 µM	2.77 µM	1.83 µM	3.88 µM	1.22 µM	2.54 µM	1.36 µM	2.73 µM	1.59 µM	4.79 µM	1.57 µM	3.46 µM	1 µM	2.79 µM
COc1ccc(CNc2nc(NCc3ccc(OC)cc3)c3n[nH]c(C(C)C)c3n2)cc1	3.47 µM	12.2 µM	16.4 µM	30.8 µM	4.29 µM	> 100 µM	18.6 µM	> 100 µM	11.4 µM	36.5 µM	9.14 µM	27.7 µM	4.45 µM	17.3 µM	5.58 µM	26.3 µM	3.59 µM	15.9 µM	4.29 µM	23.8 µM
C/C(=N\NC(=O)c1ccncc1)c1ccc(O)cc1O	> 100 µM	> 100 µM	4.06 µM	88.5 µM	8.59 µM	> 100 µM	12.2 µM	> 100 µM	3.63 µM	> 100 µM	6.48 µM	> 100 µM	3.46 µM	> 100 µM	2.19 µM	> 100 µM	3.42 µM	> 100 µM	10.9 µM	> 100 µM
CC(C)Oc1ccc(C(=O)N[C@H](CNC(=O)CN(C)C)Cc2ccc(-c3cn4cccc([C@H](C)O)c4n3)cc2)cc1Cl	0.068 µM	17.6 µM	1.36 µM	11.3 µM	0.0381 µM	18 µM	0.0711 µM	13.4 µM	0.0385 µM	13.1 µM	0.0661 µM	20.4 µM	0.0736 µM	14.5 µM	0.0727 µM	20.9 µM	2.64 µM	19.8 µM	0.0664 µM	21.4 µM
Cc1ccc(NC(=O)c2nc(S(C)=O)oc2-c2ccc(F)cc2)cc1Nc1nccc(-c2cccnc2)n1 (stereo not drawn)	1.74 µM	4.17 µM	2.72 µM	7.74 µM	2.58 µM	7.14 µM	1.86 µM	3.46 µM	1.91 µM	3.75 µM	1.81 µM	3.73 µM	1.22 µM	2.65 µM	2.15 µM	4.61 µM	3.07 µM	11.9 µM	2.25 µM	4.85 µM
C[C@@]1(N2C(=O)OC[C@@H]2c2ccccc2)C(=O)N([C@H](CC(=O)N2CCC(N3CCCCC3)CC2)C(=O)NCc2cccc(C(F)(F)F)c2)[C@@H]1/C=C/c1ccccc1	3.29 µM	9.33 µM	2.09 µM	3.97 µM	2.42 µM	6.21 µM	2.1 µM	4.51 µM	2.79 µM	8.47 µM	2 µM	4.31 µM	1.81 µM	3.5 µM	1.76 µM	3.94 µM	10.2 µM	24 µM	4.15 µM	15.7 µM
CSc1nc2c(c(=O)[nH]1)C(c1ccc(Cl)cc1)C1=C(N2)/C(=C/c2ccc(Cl)cc2)CNC1 (stereo not drawn)	1.8 µM	3.68 µM	2.63 µM	9.4 µM	2.06 µM	4.47 µM	1.65 µM	3.42 µM	3.36 µM	11.6 µM	2.06 µM	4.7 µM	1.9 µM	3.81 µM	2.76 µM	–	3.29 µM	16.5 µM	1.99 µM	5.1 µM
Cc1ccccc1/C=C1\CN(C(=O)OC(C)(C)C)C/C(=C\c2ccccc2C)C1=O	2.3 µM	6.61 µM	3.12 µM	9.92 µM	2.03 µM	4.68 µM	1.66 µM	3.21 µM	2.37 µM	5.52 µM	2.7 µM	6.43 µM	1.88 µM	3.6 µM	2.95 µM	10.6 µM	3.49 µM	65.1 µM	2.5 µM	7.69 µM
CC(C)[C@@H]1CC[C@@H]2[C@@H]1[C@H](OC(=O)/C=C/c1ccccc1)[C@]1(C(C)C)C[C@@H](OC(=O)CO)[C@@]2(C)O1	0.0375 µM	4.38 µM	7.83 µM	17.6 µM	7.07 µM	14.6 µM	3.31 µM	8.31 µM	7.02 µM	13.4 µM	3.39 µM	8.04 µM	5.36 µM	10.2 µM	4.02 µM	9.03 µM	0.0795 µM	5 µM	5.31 µM	12.2 µM
S=C(N/N=C(/c1ccccc1)c1ccccn1)Nc1cccc(Cl)c1	–	6.22 µM	0.00172 µM	–	0.144 µM	3.55 µM and 6.75 µM	–	2.51 µM and 3.86 µM	2.97 µM	9.43 µM	–	6.07 µM	0.729 µM	3.72 µM and > 34 µM	2.33 µM	16.6 µM	0.0619 µM	4.38 µM	0.0264 µM	7.05 µM and 6.71 µM
COc1ccc(/C=C/C(=O)c2ccc(Nc3ccnc4cc(Cl)ccc34)cc2)cc1	> 100 µM	> 100 µM	> 100 µM	> 100 µM	> 79.4 µM	> 100 µM	> 100 µM	> 100 µM	> 100 µM	> 100 µM	> 100 µM	> 100 µM	> 100 µM	> 100 µM	> 100 µM	> 100 µM	> 100 µM	> 100 µM	> 100 µM	> 100 µM
O=c1cccc(C#CC#C/C=C/CO)o1	2.1 µM	5.17 µM	2.07 µM	4.7 µM	1.64 µM	4.34 µM	2.38 µM	7.03 µM	3.4 µM	12.4 µM	1.74 µM	4.19 µM	1.55 µM	3.32 µM	2.44 µM	17.1 µM	2.52 µM	–	2.94 µM	11.3 µM
CCc1ccc(Nc2cc(C)nc3nc(C)nn23)cc1	> 100 µM	> 100 µM	> 100 µM	> 100 µM	70.6 µM	> 100 µM	19.3 µM	> 100 µM	35.1 µM	> 100 µM	46.1 µM	> 100 µM	46 µM	> 100 µM	69.1 µM	> 100 µM	49.4 µM	> 100 µM	53.3 µM	> 100 µM
Oc1cc2ccccc2cc1-c1n[nH]c(=S)n1-c1ccc(Cl)cc1	16.2 µM	> 100 µM	18.7 µM	56.7 µM	9.14 µM	> 100 µM	21.5 µM	67.1 µM	31.2 µM	> 100 µM	10.8 µM	55.2 µM	11.2 µM	50.2 µM	6.46 µM	32.9 µM	13.8 µM	64.1 µM	15.7 µM	> 100 µM
O=C(Nc1ccc(Br)cc1F)c1cc(Br)ccc1O	0.403 µM	3.25 µM	0.829 µM	5.34 µM	1.93 µM	5.66 µM	0.661 µM	3.33 µM	1.47 µM	23.1 µM	0.519 µM	6.39 µM	0.668 µM	4.47 µM	0.716 µM	11.6 µM	0.876 µM	5.44 µM	2.06 µM	7.69 µM
O=C(/C=C/c1cccnc1)c1ccccc1O	14.2 µM	28.5 µM	25.4 µM	60.3 µM	32.2 µM	> 100 µM	13.8 µM	27.3 µM	16 µM	31.6 µM	24.4 µM	81.9 µM	14.4 µM	30.8 µM	26.9 µM	97.6 µM	24.6 µM	> 100 µM	21.9 µM	66.8 µM
O=C1c2ccccc2C(=O)c2c1ccc1c2OCO1	–	> 100 µM	–	> 100 µM	–	> 100 µM	–	> 100 µM	–	> 100 µM	–	> 100 µM	–	> 100 µM	–	> 100 µM	–	> 100 µM	–	> 100 µM
Cc1ccc(S(=O)(=O)n2cc(-c3nnnn3-c3ccc(Cl)cc3)c(=O)c3ccccc32)cc1	> 100 µM	> 100 µM	> 100 µM	> 100 µM	> 100 µM	> 100 µM	29.6 µM	> 100 µM	> 100 µM	> 100 µM	> 100 µM	> 100 µM	> 100 µM	> 100 µM	> 100 µM	> 100 µM	> 100 µM	> 100 µM	57.3 µM	> 100 µM
CC(=O)c1ccc(NCN2C(=O)c3ccccc3C2=O)cc1	–	> 100 µM	–	> 100 µM	–	> 100 µM	–	> 100 µM	–	> 100 µM	–	> 100 µM	–	> 100 µM	–	> 100 µM	–	> 100 µM	–	> 100 µM
CC(=O)Nc1sc2c(c1-c1nc3ccccc3s1)CNC2	6.83 µM	14.7 µM	5.41 µM	14.8 µM	3.38 µM	> 50 µM	2.25 µM	7.96 µM	2.93 µM	> 50 µM	2.5 µM	15.5 µM	1.67 µM	6.74 µM	2.94 µM	15 µM	1.97 µM	15.7 µM	3.37 µM	18.4 µM
COc1cc(OC)cc(-c2cncn2-c2ccc(-c3nc4cc(OC)c(OC)c(OC)c4s3)cc2)c1	6.71 µM	> 100 µM	20.5 µM	> 100 µM	5.54 µM	> 100 µM	30.2 µM	> 100 µM	31.1 µM	> 100 µM	31.9 µM	> 100 µM	6.93 µM	> 100 µM	22.1 µM	> 100 µM	11 µM	> 100 µM	3.17 µM	> 100 µM
Cc1cccc(C[C@H](NC(=O)Nc2ccc(Cl)cc2F)C(=O)N[C@@H]2C(=O)N3C[C@H](OC(=O)CCN(C)C)C[C@H]3C(=O)N3CCCC[C@H]3C(=O)N[C@@H](C)C(=O)N3C[C@H](C)C[C@H]3C(=O)O[C@H]2C)c1 ({NH(4-Cl-2-F-phenyl)-CO}-[Phe(3-Me)][aThr][Hyp](Propanoyl(3-NMe2))[Pip]A[Pro(4R-Me)]; ester 2-C)	0.526 µM	2.48 µM	0.385 µM	2.14 µM	0.746 µM	2.34 µM	1.23 µM	2.85 µM	0.514 µM	5.86 µM	0.371 µM	2.18 µM	0.683 µM	2.2 µM	0.466 µM	4.08 µM	10.8 µM	28.5 µM	0.368 µM	1.76 µM
CN1CCCCC1CCN1c2ccccc2Sc2ccc(S(C)=O)cc21 (stereo not drawn)	–	> 100 µM	–	> 100 µM	–	> 100 µM	–	> 100 µM	–	> 100 µM	–	> 100 µM	–	> 100 µM	–	> 100 µM	–	> 100 µM	–	> 100 µM
CN1CCCN(C(c2ccccc2)c2ccc(Br)cc2)CC1 (stereo not drawn)	4.89 µM	19.4 µM	2.41 µM	5.41 µM	2.73 µM	7.09 µM	2.65 µM	8.67 µM	10.5 µM	22.3 µM	3.51 µM	12.5 µM	2.85 µM	10.1 µM	2.76 µM	8.97 µM	3.09 µM	–	2.87 µM	13.5 µM
O=C(O)/C=C\C(=O)Nc1ccc2c(c1)C(=O)c1cc(F)ccc1-2	–	> 100 µM	–	> 100 µM	–	> 100 µM	–	> 100 µM	–	> 100 µM	–	> 100 µM	–	> 100 µM	–	> 100 µM	–	> 100 µM	–	> 100 µM
